Key:
KCC2 = molecular target: T1, KCC2 (Homo sapiens, UniProt Q9H2X9); experiment: FLIPR thallium (Tl+) flux assay in HEK-293 cells expressing KCC2; format: cell-based; conditions: saturating concentration of 3 μM, 1% BCD vehicle
T1 construct: expressed in transfected cells; host or cells: HEK-293 (ATCC CRL-1573), Lipofectamine 2000, used 48-72 h after transfection
T1 sequence (Q9H2X9 1-1116 isoform Q9H2X9-2): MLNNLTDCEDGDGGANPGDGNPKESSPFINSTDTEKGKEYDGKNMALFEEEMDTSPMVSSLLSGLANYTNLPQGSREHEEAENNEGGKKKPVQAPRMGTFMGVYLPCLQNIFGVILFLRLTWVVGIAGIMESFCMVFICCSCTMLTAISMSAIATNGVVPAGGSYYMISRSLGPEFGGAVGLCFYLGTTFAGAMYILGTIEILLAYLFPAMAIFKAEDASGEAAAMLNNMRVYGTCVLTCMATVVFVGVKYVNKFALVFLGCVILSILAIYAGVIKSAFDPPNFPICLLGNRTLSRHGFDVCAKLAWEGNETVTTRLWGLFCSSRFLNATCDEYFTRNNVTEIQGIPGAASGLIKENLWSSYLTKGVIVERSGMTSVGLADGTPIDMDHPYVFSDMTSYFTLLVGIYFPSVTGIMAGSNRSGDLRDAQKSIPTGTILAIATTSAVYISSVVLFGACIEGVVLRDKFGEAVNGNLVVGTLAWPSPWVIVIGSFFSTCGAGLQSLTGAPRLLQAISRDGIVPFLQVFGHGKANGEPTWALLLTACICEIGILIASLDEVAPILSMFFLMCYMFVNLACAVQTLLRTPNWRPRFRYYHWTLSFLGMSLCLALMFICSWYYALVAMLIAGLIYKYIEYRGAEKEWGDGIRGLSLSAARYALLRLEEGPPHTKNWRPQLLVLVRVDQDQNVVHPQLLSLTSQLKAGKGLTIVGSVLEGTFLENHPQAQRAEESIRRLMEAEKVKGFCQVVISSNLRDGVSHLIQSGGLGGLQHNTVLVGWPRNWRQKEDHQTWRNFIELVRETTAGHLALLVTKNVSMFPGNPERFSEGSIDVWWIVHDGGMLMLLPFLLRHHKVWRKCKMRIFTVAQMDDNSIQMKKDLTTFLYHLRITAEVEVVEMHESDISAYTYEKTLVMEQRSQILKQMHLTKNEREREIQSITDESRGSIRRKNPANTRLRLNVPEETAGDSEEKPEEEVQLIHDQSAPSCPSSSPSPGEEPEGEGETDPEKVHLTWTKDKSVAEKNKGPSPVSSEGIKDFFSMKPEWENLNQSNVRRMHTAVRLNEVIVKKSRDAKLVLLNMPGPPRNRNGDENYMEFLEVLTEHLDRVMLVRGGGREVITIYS
Experimental: A multi-tiered high-throughput screening assay was used, leveraging a proprietary library of 1.3 million small molecule compounds from AstraZeneca (Cambridge, UK) to identify chemical entities capable of activating KCC2. A single point concentration of 30 μM was used to identify potassium flux using an established thallium (TI+) influx FLIPR assay as the primary read out in HEK-293 cells overexpressing KCC2 (Cardarelli et al., Nat. Med. 23, 1394-1396 (2017); Conway et al., J Biol Chem 292, 21253-21263 (2017); Lee et al., 2022, supra).
Cell Culture and biotinylation. […]
FLIPR TI Flux assay. HEK-293 cells were washed with HBSS, and then incubated with loading buffer containing TI sensitive fluorescent dye (https://www.moleculardevices.com), 20 μM bumetanide 20 μM ouabain and 2.5 mM probenecid for 1 h at room temperature (RT) under control conditions or with drugs in the dark using a FlexStation 3 microplate reader (Molecular Devices) and imaged […] for 30 min. Stimulus buffer was added containing 5 mM K^+/0.5 mM Tl^+ and cells were imaged every 1.5 over a 190 second time course The initial rate Tl^+ uptake (Relative Fluorescence Units (RFU) per second) was determined following addition of the stimulus buffer as outlined previously (Conway et al., 2017, supra) (Lee et al., 2022, supra). […]

acute brain slices = experiment: Late recurrent discharges in acute brain slices exposed to 0-Mg

C[C@@H]1CN(c2nc3c(c(Nc4ccc(C5CCCCC5)cc4)n2)COC3)CCO1 [Compound A, (R)—N-(4-cyclohexylphenyl)-2-(2-methylmorpholino)-5,7-dihydrofuro[3,4-d]pyrimidin-4-amine]
maximum potentiation of KCC2 (KCC2): 90% | development of late recurrent discharges (LRDs) (acute brain slices): reduced
